From patent publication US8785594B2, “Glycoproteins and glycosylated cells and a method for the preparation of the same” (Glycom A/S, priority 2007, dated 2014)

Experiments:
B16.BL6 melanoma cells [1] = test: Cell concentration and viability after conjugation, trypan blue (Example 15); type: cell-based
Protocol: (§1) Twelve flasks (300 cm^2) (TPP, Trasadingen Switzerland) of confluent B16.BL6 melanoma cells grown in DMEM containing 10% fetal calf serum (without P/S) at 37.5° C. in 5% CO2 was used for this experiment. Growth medium was removed from the cells and 20 mL of HBSS containing D-glucose (without Mg^2+ and Ca^2+) (Gibco, Invitrogen, Taastrup, Denmark) was added to the cells and immediately removed again. Another 10 mL of HBSS containing D-glucose (without Mg^2+ and Ca^2+) was added and removed, before cells were harvested with Cell Dissociation Solution C5914 (Sigma-aldrich, Saint Louis, Mo.) (10 mL per flask) and transferred to 50 mL tubes (TPP, Trasadingen Switzerland). The cells were centrifuged for 3 minutes at 300 G at 20° C. and the supernatant was discarded. Subsequently, cells were washed twice in HBSS containing D-glucose (without Mg^2+ and Ca^2+), centrifuged as above and resuspended in HBSS containing D-glucose (without Mg^2+ and Ca^2+). The concentration of the cell suspension was determined.
Radioactive labelled and regular alpha-Gal trisaccharide-carbamate (9) probe (labeled on the cyclic carbamate carbon) was dissolved in HBSS containing D-glucose (without Mg^2+ and Ca^2+) (Gibco Invitrogen, Taastrup, Denmark) and passed through sterile filters (0.2 μm Supor® Acrodisc® 13, Gelman Sciences, Ann Arbor, Mich.). Eight different concentrations of radioactive labelled alpha-Gal trisaccharide-carbamate (9) (1 μg, 10 μg, 100 μg, 1 mg, 5 mg, 10 mg, 15 mg and 20 mg) and […] concentrations of regular “Glycom conjugate” (10 μg, 100 μg, 1 mg, 5 mg, 10 mg, 15 mg and 20 mg) were used. Twelve flasks (300 cm^2) (TPP, Trasadingen Switzerland) were prepared, each containing 10×10^6 B16.BL6 cells, for conjugation with the radioactive labelled trisaccharide probe, and 8 flasks (150 cm^2) (TPP, Trasadingen Switzerland) were prepared, each containing 5×10^6 B16.BL6 cells, for conjugation with the non-radioactive conjugate. The Glycom conjugate was added and the total volume was adjusted with HBSS containing D-glucose (without Mg^2+ and Ca^2+) so that each large flask (300 cm^2) contained a final volume of 20 mL and each medium flask (150 cm^2) contained a final volume of 10 mL. Cells were incubated with the “Glycom conjugate” for 1.5 hours at 37° C. After conjugation, the supernatant from each flask was transferred to separate 50 mL tubes (TPP, Trasadingen Switzerland). The cells were harvested with Cell Dissociation Solution (10 mL per large flask and 5 mL per medium flask) (Sigma-aldrich, Saint Louis, Mo.) and transferred to the 50 mL tubes containing the supernatant. The cells were centrifuged for 5 minutes at 300 G at 20° C. and resuspended in 5 mL of PBS (without Mg^2+ and Ca^2+). […]

B16.BL6 melanoma cells [2] = test: Cell concentration and viability after conjugation, trypan blue (Example 14); type: cell-based
Protocol: as §1, with “Nine flasks” for “Twelve flasks”, “CO2 were” for “CO2 was”
Radioactive labelled and regular trisaccharide probe was dissolved in HBSS containing D-glucose (without Mg^2+ and Ca^2+) (Gibco Invitrogen, Taastrup, Denmark) and passed through sterile filters (0.2 μm Supor® Acrodisc® 13, Gelman Sciences, Ann Arbor, Mich.). Four different concentrations of each “Glycom conjugate” (25 mg, 5 mg, 1 mg and 0.1 mg) were made. Twelve flasks (150 cm^2) (TPP, Trasadingen Switzerland) were prepared each containing a total of 10×10^6 B16.BL6 cells. The trisaccharide probe was added and the total volume was adjusted to 20 mL with HBSS containing D-glucose (without Mg^2+ and Ca^2+). The cells were incubated with the “Glycom conjugate” for 1.5 hours at 37° C. After conjugation, the supernatant from each flask was transferred to separate 50 mL tubes (TPP, Trasadingen Switzerland). The cells were harvested with Cell Dissociation Solution C5914 (5 mL per flask) (Sigma-Aldrich, Saint Louis, Mo. and transferred to the 50 mL tubes containing the supernatant. The cells were centrifuged for 3 minutes at 300 G at 20° C. and resuspended in 5 mL of PBS (without Mg^2+ and Ca^2+). This was repeated 3 times before cell concentration and viability was determined by microscopical evaluation of trypan blue stained cell samples.

[3] = reaction 2, regular conjugate 20 mg, 5×10^6 cells, 1.5 hours, after washing once
[4] = reaction 3, regular conjugate 15 mg
[5] = reaction 4, regular conjugate 10 mg
[6] = reaction 5, regular conjugate 5 mg
[7] = reaction 6, regular conjugate 1 mg
[8] = reaction 7, regular conjugate 100 μg
[9] = reaction 8, regular conjugate 10 μg
[10] = regular conjugate 25 mg, 10×10^6 cells, 1.5 hours
[11] = reaction C, radioactive labelled conjugate 20 mg, 10×10^6 cells, 1.5 hours, after washing 4 times
[12] = reaction D, radioactive labelled conjugate 15 mg
[13] = reaction E, radioactive labelled conjugate 10 mg
[14] = reaction F, radioactive labelled conjugate 5 mg
[15] = reaction G, radioactive labelled conjugate 1 mg
[16] = reaction H, radioactive labelled conjugate 100 μg
[17] = reaction I, radioactive labelled conjugate 10 μg
[18] = reaction J, radioactive labelled conjugate 1 μg
[19] = radioactive labelled conjugate 0.1 mg
[20] = radioactive labelled conjugate 1 mg
[21] = radioactive labelled conjugate 5 mg, cells from supernatant only
[22] = radioactive labelled conjugate 25 mg, attached cells only

O=C1N[C@@H]2O[C@H](CO)[C@@H](O[C@@H]3O[C@H](CO)[C@H](O)[C@H](O[C@H]4O[C@H](CO)[C@H](O)[C@H](O)[C@H]4O)[C@H]3O)[C@H](O)[C@H]2O1 [Compound 9, alpha-Gal trisaccharide-carbamate]
Cell concentration (B16.BL6 melanoma cells [1]; [3]): 4.2 × 10^5 cells/mL
Cells harvested (B16.BL6 melanoma cells [1]; [3]): 1.1 × 10^6
Cells harvested (percent) (B16.BL6 melanoma cells [1]; [3]): 21%
Viability (B16.BL6 melanoma cells [1]; [3]): 85.7%
Cell concentration (B16.BL6 melanoma cells [1]; [4]): 6.0 × 10^5 cells/mL
Cells harvested (B16.BL6 melanoma cells [1]; [4]): 1.5 × 10^6
Cells harvested (percent) (B16.BL6 melanoma cells [1]; [4]): 30%
Viability (B16.BL6 melanoma cells [1]; [4]): 80.0%
Cell concentration (B16.BL6 melanoma cells [1]; [5]): 2.8 × 10^5 cells/mL
Cells harvested (B16.BL6 melanoma cells [1]; [5]): 0.7 × 10^6
Cells harvested (percent) (B16.BL6 melanoma cells [1]; [5]): 14%
Viability (B16.BL6 melanoma cells [1]; [5]): 71.4%
Cell concentration (B16.BL6 melanoma cells [1]; [6]): 4.4 × 10^5 cells/mL
Cells harvested (B16.BL6 melanoma cells [1]; [6]): 1.1 × 10^6
Cells harvested (percent) (B16.BL6 melanoma cells [1]; [6]): 22%
Viability (B16.BL6 melanoma cells [1]; [6]): 81.8%
Cell concentration (B16.BL6 melanoma cells [1]; [7]): 4.2 × 10^5 cells/mL
Cells harvested (B16.BL6 melanoma cells [1]; [7]): 1.1 × 10^6
Cells harvested (percent) (B16.BL6 melanoma cells [1]; [7]): 21%
Viability (B16.BL6 melanoma cells [1]; [7]): 66.7%
Cell concentration (B16.BL6 melanoma cells [1]; [8]): 6.0 × 10^5 cells/mL
Cells harvested (B16.BL6 melanoma cells [1]; [8]): 1.5 × 10^6
Cells harvested (percent) (B16.BL6 melanoma cells [1]; [8]): 30%
Viability (B16.BL6 melanoma cells [1]; [8]): 60.1%
Cell concentration (B16.BL6 melanoma cells [1]; [9]): 4.2 × 10^5 cells/mL
Cells harvested (B16.BL6 melanoma cells [1]; [9]): 1.1 × 10^6
Cells harvested (percent) (B16.BL6 melanoma cells [1]; [9]): 21%
Viability (B16.BL6 melanoma cells [1]; [9]): 57.1%
Cell concentration (B16.BL6 melanoma cells [2]; regular conjugate 0.1 mg): 7.4 × 10^5
Cells harvested (B16.BL6 melanoma cells [2]; regular conjugate 0.1 mg): 3.7 × 10^6
Cells harvested (percent) (B16.BL6 melanoma cells [2]; regular conjugate 0.1 mg): 37%
Viability (B16.BL6 melanoma cells [2]; regular conjugate 0.1 mg): 67.6%
Cell concentration (B16.BL6 melanoma cells [2]; regular conjugate 1 mg): 13.4 × 10^5
Cells harvested (B16.BL6 melanoma cells [2]; regular conjugate 1 mg): 6.7 × 10^6
Cells harvested (percent) (B16.BL6 melanoma cells [2]; regular conjugate 1 mg): 67%
Viability (B16.BL6 melanoma cells [2]; regular conjugate 1 mg): 79.1%
Cell concentration (B16.BL6 melanoma cells [2]; regular conjugate 5 mg): 7.0 × 10^5
Cells harvested (B16.BL6 melanoma cells [2]; regular conjugate 5 mg): 3.5 × 10^6
Cells harvested (percent) (B16.BL6 melanoma cells [2]; regular conjugate 5 mg): 35%
Viability (B16.BL6 melanoma cells [2]; regular conjugate 5 mg): 91.4%
Cell concentration (B16.BL6 melanoma cells [2]; [10]): 9.0 × 10^5
Cells harvested (B16.BL6 melanoma cells [2]; [10]): 4.5 × 10^6
Cells harvested (percent) (B16.BL6 melanoma cells [2]; [10]): 45%
Viability (B16.BL6 melanoma cells [2]; [10]): 77.8%

O=[13C]1N[C@@H]2O[C@H](CO)[C@@H](O[C@@H]3O[C@H](CO)[C@H](O)[C@H](O[C@H]4O[C@H](CO)[C@H](O)[C@H](O)[C@H]4O)[C@H]3O)[C@H](O)[C@H]2O1 [radioactive labelled conjugate]
Cell concentration (B16.BL6 melanoma cells [1]; [11]): 6.1 × 10^6 cells/mL
Cells harvested (B16.BL6 melanoma cells [1]; [11]): 2.7 × 10^6
Cells harvested (percent) (B16.BL6 melanoma cells [1]; [11]): 27.5%
Viability (B16.BL6 melanoma cells [1]; [11]): 82.0%
Cell concentration (B16.BL6 melanoma cells [1]; [12]): 4.3 × 10^6 cells/mL
Cells harvested (B16.BL6 melanoma cells [1]; [12]): 1.9 × 10^6
Cells harvested (percent) (B16.BL6 melanoma cells [1]; [12]): 19.4%
Viability (B16.BL6 melanoma cells [1]; [12]): 88.9%
Cell concentration (B16.BL6 melanoma cells [1]; [13]): 12 × 10^6 cells/mL
Cells harvested (B16.BL6 melanoma cells [1]; [13]): 5.4 × 10^6
Cells harvested (percent) (B16.BL6 melanoma cells [1]; [13]): 54.0%
Viability (B16.BL6 melanoma cells [1]; [13]): 86.7%
Cell concentration (B16.BL6 melanoma cells [1]; [14]): 5.2 × 10^6 cells/mL
Cells harvested (B16.BL6 melanoma cells [1]; [14]): 2.3 × 10^6
Cells harvested (percent) (B16.BL6 melanoma cells [1]; [14]): 23.4%
Viability (B16.BL6 melanoma cells [1]; [14]): 82.7%
Cell concentration (B16.BL6 melanoma cells [1]; [15]): 5.9 × 10^6 cells/mL
Cells harvested (B16.BL6 melanoma cells [1]; [15]): 2.7 × 10^6
Cells harvested (percent) (B16.BL6 melanoma cells [1]; [15]): 26.6%
Viability (B16.BL6 melanoma cells [1]; [15]): 91.5%
Cell concentration (B16.BL6 melanoma cells [1]; [16]): 3.8 × 10^6 cells/mL
Cells harvested (B16.BL6 melanoma cells [1]; [16]): 1.7 × 10^6
Cells harvested (percent) (B16.BL6 melanoma cells [1]; [16]): 17.1%
Viability (B16.BL6 melanoma cells [1]; [16]): 81.6%
Cell concentration (B16.BL6 melanoma cells [1]; [17]): 6.2 × 10^6 cells/mL
Cells harvested (B16.BL6 melanoma cells [1]; [17]): 2.8 × 10^6
Cells harvested (percent) (B16.BL6 melanoma cells [1]; [17]): 27.9%
Viability (B16.BL6 melanoma cells [1]; [17]): 82.3%
Cell concentration (B16.BL6 melanoma cells [1]; [18]): 5.0 × 10^6 cells/mL
Cells harvested (B16.BL6 melanoma cells [1]; [18]): 2.3 × 10^6
Cells harvested (percent) (B16.BL6 melanoma cells [1]; [18]): 22.5%
Viability (B16.BL6 melanoma cells [1]; [18]): 84.0%
Cell concentration (B16.BL6 melanoma cells [2]; [19]): 13.8 × 10^5
Cells harvested (B16.BL6 melanoma cells [2]; [19]): 6.9 × 10^6
Cells harvested (percent) (B16.BL6 melanoma cells [2]; [19]): 69%
Viability (B16.BL6 melanoma cells [2]; [19]): 91.3%
Cell concentration (B16.BL6 melanoma cells [2]; [20]): 14.8 × 10^5
Cells harvested (B16.BL6 melanoma cells [2]; [20]): 7.4 × 10^6
Cells harvested (percent) (B16.BL6 melanoma cells [2]; [20]): 74%
Viability (B16.BL6 melanoma cells [2]; [20]): 93.2%
Cell concentration (B16.BL6 melanoma cells [2]; [21]): 10.8 × 10^5
Cells harvested (B16.BL6 melanoma cells [2]; [21]): 5.4 × 10^6
Cells harvested (percent) (B16.BL6 melanoma cells [2]; [21]): 54%
Viability (B16.BL6 melanoma cells [2]; [21]): 81.5%
Cell concentration (B16.BL6 melanoma cells [2]; [22]): 2.0 × 10^5
Cells harvested (B16.BL6 melanoma cells [2]; [22]): 1.0 × 10^6
Cells harvested (percent) (B16.BL6 melanoma cells [2]; [22]): 10%
Viability (B16.BL6 melanoma cells [2]; [22]): 90.0%
